From US9458141B2, “Low molecular weight thyroid stimulating hormone receptor (TSHR) agonists” (The United States of America, as represented by the …, priority 2008, dated 2016)
Where two headings read alike, the source gives them in different places.

Molecular target: T1, human TSHR (Homo sapiens, UniProt P16473)
T1 construct: expressed in transfected cells
Assay: Homogeneous Time Resolved Fluorescence (HTRF) cAMP assay, TSHR cell line
Type: cell-based
Settings: for Maximum Activity compared to TSH: 100% activity = response of 30 mU/ml TSH, 0% = DMSO control, in %; for AC50: HTRF cAMP, TSHR cell line, 30 minute incubation; for Emax: read-out: Maximum Activity compared to TSH, 100% activity = response of 30 mU/ml TSH, 0% = DMSO control; call rule not given here

T1 sequence (P16473 21-764): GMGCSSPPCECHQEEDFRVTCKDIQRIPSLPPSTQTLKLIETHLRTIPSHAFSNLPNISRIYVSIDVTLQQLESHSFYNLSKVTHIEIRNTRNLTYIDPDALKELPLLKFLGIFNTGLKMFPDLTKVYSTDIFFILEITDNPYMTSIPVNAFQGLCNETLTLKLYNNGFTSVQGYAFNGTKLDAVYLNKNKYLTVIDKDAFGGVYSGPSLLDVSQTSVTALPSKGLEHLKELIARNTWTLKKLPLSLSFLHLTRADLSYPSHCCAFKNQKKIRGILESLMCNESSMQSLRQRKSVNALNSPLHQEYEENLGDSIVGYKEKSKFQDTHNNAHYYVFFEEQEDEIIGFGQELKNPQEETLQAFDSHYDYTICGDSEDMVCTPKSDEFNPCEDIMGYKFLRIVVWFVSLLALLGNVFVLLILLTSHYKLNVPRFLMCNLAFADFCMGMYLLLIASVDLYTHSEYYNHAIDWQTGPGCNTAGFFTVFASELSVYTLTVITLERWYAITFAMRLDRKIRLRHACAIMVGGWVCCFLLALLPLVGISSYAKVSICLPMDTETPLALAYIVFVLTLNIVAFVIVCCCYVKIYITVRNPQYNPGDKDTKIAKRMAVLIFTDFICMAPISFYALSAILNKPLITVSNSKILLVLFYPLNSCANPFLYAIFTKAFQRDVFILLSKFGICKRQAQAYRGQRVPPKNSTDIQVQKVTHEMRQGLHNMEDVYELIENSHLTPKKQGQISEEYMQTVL

Row | Structure (SMILES) | Maximum Activity compared to TSH | AC50 (read-out: AC50) [µM] | Emax [%] | AC50
1 | COc1ccc(CNc2ccccc2C(=O)NCc2ccccc2)cc1COc1ccc(NC(C)=O)cc1 [Structure 109] | – | 17.8 | 47.5 | –
2 | COc1ccc(C(=O)N(Cc2ccco2)Cc2cccs2)c(O)c1 [Structure 112] | 60.92 | 15.8 | – | –
3 | COc1ccc(-c2nc3ccccc3c(=O)n2Cc2ccc(CNC(=O)CO)cc2)cc1COc1ccc(NC(C)=O)cc1 [Structure 116] | – | 35.5 | 54.6 | –
4 | COc1ccc(C(=O)N(Cc2ccco2)Cc2ccco2)c(O)c1 [Structure 121] | 38.00 | 39.8 | – | –
5 | COc1ccc(C(=O)N(Cc2ccco2)Cc2ccco2)c(O)c1 [Structure 122] | 61.90 | 50.1 | – | –
6 | COc1ccc(C2Nc3ccc(Cl)cc3C(=O)N2Cc2ccccc2)cc1COc1ccc(NC(C)=O)cc1 (stereo not drawn) [Structure 123] | 83.18 | 14.1 | – | –
7 | COc1ccc(C2Nc3ccccc3C(=O)N2Cc2ccncc2)cc1COc1ccc(NC(C)=O)cc1 (stereo not drawn) [Structure 125] | – | 39.8 | 56.4 | –
8 | COc1ccc(-c2nc3ccccc3c(=O)n2Cc2ccc(CNC(=O)CO)cc2)cc1COc1ccc(NC(C)=O)cc1 [Structure 126] | 36.00 | 17.8 | – | –
9 | COc1ccc(C2Nc3ccccc3C(=O)N2Cc2ccc(CNC(=O)CO)cc2)cc1COc1ccc(NC(C)=O)cc1 (stereo not drawn) [Structure 128] | 69.13 | 39.8 | – | –
10 | COc1ccc(C2Nc3ccccc3C(=O)N2Cc2ccncc2)cc1COc1ccc(NC(C)=O)cc1 (stereo not drawn) [Structure 132] | 44.00 | 31.6 | – | –
11 | O=C(c1ccccc1O)N(Cc1cccs1)Cc1cccs1 [Structure 133] | – | 31.6 | 55.3 | –
12 | COc1ccc(CNc2ccccc2C(=O)NCc2ccccc2)cc1COc1ccc(NC(C)=O)cc1 [Structure 134] | 30.50 | 8.91 | – | –
13 | COc1ccc(CN(Cc2ccccc2)C(=O)Nc2ccccc2)cc1COc1ccc(NC(C)=O)cc1 [Structure 135] | 48.07 | – | – | –
14 | COc1ccc(C2NC(=O)c3ccccc3N2)cc1COc1ccc(NC(C)=O)cc1 (stereo not drawn) [Structure 137] | – | – | – | inactive
15 | COc1ccc(C2Nc3ccccc3C(=O)N2C2CCCC2)cc1COc1ccc(NC(C)=O)cc1 (stereo not drawn) [Structure 138] | – | 20 | 31.5 | –
16 | COc1ccc(C2Nc3ccccc3C(=O)N2Cc2ccco2)cc1COc1c(C)cccc1C (stereo not drawn) [Structure 141] | – | – | – | inactive
17 | O=C(c1ccccc1O)N(Cc1ccccc1)Cc1cccs1 [Structure 142] | – | 20 | 34 | –

Row | Structure (SMILES) | Maximum Activity compared to TSH | AC50 (read-out: AC50) [µM] | Emax [%] | AC50
18 | CC(=O)Nc1ccc(OCc2cccc(C3Nc4ccccc4C(=O)N3Cc3ccco3)c2)cc1 (stereo not drawn) [Structure 144] | – | – | – | inactive
19 | COc1ccc(CN(Cc2ccccc2)C(=O)CN2CCN(C)CC2)cc1COc1ccc(NC(C)=O)cc1 [Structure 145] | – | – | – | inactive
20 | O=C1c2ccccc2NC(c2cc(Br)c3c(c2)OCO3)N1Cc1ccco1 (stereo not drawn) [Structure 148] | – | – | – | inactive
21 | COc1ccc(C2Nc3ccccc3C(=O)N2Cc2ccco2)cc1COc1cccc(NC(C)=O)c1 (stereo not drawn) [Structure 151] | – | – | – | inactive
22 | Nc1ccccc1C(=O)NCc1ccco1 [Structure 153] | – | – | – | inactive
23 | COc1ccc2c(c1OC)C(=O)N1c3ccccc3C(=O)N(Cc3ccco3)C21 (stereo not drawn) [Structure 158] | – | – | – | inactive
24 | COc1ccc(C(=O)C2C(=O)C(=O)N(Cc3ccco3)C2c2cccs2)cc1 (stereo not drawn) [Structure 160] | – | 50.1 | 28 | –
25 | COc1ccc(C2Nc3ccccc3C(=O)N2Cc2ccco2)cc1COc1c(C)cccc1C (stereo not drawn) [Structure 162] | – | – | – | inactive
26 | COc1ccc(C2Nc3ccccc3C(=O)N2Cc2ccccc2)cc1Oc1ccc(NC(C)=O)cc1 (stereo not drawn) [Structure 163] | – | – | – | inactive
27 | COc1ccc(C2Nc3ccccc3C(=O)N2Cc2ccccc2)cc1COc1cccc(C(F)(F)F)c1 (stereo not drawn) [Structure 164] | – | – | – | inactive
28 | COc1ccc(CN(Cc2ccccc2)C(=O)c2ccc(NC(C)=O)cc2)cc1COc1ccc(NC(C)=O)cc1 [Structure 166] | – | – | – | inactive
29 | COc1ccc(C(=O)N(Cc2ccccc2)Cc2ccccc2)cc1COc1ccc(NC(C)=O)cc1 [Structure 167] | 24.50 | 14.1 | – | –
30 | COc1ccc(C(=O)N(Cc2ccccc2)Cc2ccc(OC)c(COc3ccc(NC(C)=O)cc3)c2)c(O)c1 [Structure 168] | – | – | – | inactive
31 | COc1ccc(CN(Cc2ccccc2)C(=O)c2ccccc2O)cc1 [Structure 169] | – | 50.1 | 34 | –
32 | COc1ccc(C2Nc3ccccc3C(=O)N2Cc2ccccc2)cc1COc1ccccc1OC (stereo not drawn) [Structure 172] | – | – | – | inactive
33 | COc1ccc(-c2nc3ccccc3c(=O)n2Cc2ccccc2)cc1CNc1ccc(NC(C)=O)cc1 [Structure 173] | – | 15.8 | 30 | –

Next, values leading:

Row | Maximum Activity compared to TSH | AC50 (read-out: AC50) [µM] | Emax [%] | AC50 | Structure (SMILES)
34 | 63.12 | 15.8 | – | – | COc1ccc(C(=O)N(Cc2cccs2)Cc2cccs2)c(O)c1 [Structure 108]
35 | 48.00 | 22.4 | – | – | COc1ccc(-c2nc3ccc(NC(C)=O)cc3c(=O)n2Cc2cccc(Cl)c2)cc1COc1ccc(NC(C)=O)cc1 [Structure 110]
36 | 98.46 | 35.5 | – | – | COc1ccc(C2Nc3ccccc3C(=O)N2Cc2cccnc2)cc1COc1ccc(NC(C)=O)cc1 (stereo not drawn) [Structure 111]
37 | – | 39.8 | 63.8 | – | O=C(c1ccccc1O)N(Cc1ccco1)Cc1cccs1 [Structure 113]
38 | 51.15 | 25.1 | – | – | COc1ccc(C(=O)N(Cc2ccccc2)Cc2ccccc2)c(O)c1 [Structure 114]
39 | 66.81 | 39.8 | – | – | COc1ccc(C2Nc3ccccc3C(=O)N2Cc2ccccn2)cc1COc1ccc(NC(C)=O)cc1 (stereo not drawn) [Structure 115]
40 | 87.19 | 44.7 | – | – | COc1ccc(CN(Cc2ccccc2)C(=O)c2ccncc2)cc1COc1ccc(NC(C)=O)cc1 [Structure 117]
41 | 96.91 | 28.2 | – | – | COc1ccc(C(=O)N(Cc2ccccc2)Cc2ccco2)c(O)c1 [Structure 118]
42 | 56.31 | 14.1 | – | – | COc1ccc(C2Nc3ccc(Cl)cc3C(=O)N2Cc2ccccc2)cc1COc1ccc(NC(C)=O)cc1 (stereo not drawn) [Structure 119]
43 | – | 15.8 | 40.5 | – | COc1ccc(C(=O)N(Cc2ccccc2)Cc2ccccc2)cc1COc1ccc(NC(C)=O)cc1 [Structure 120]
44 | 62.73 | 31.6 | – | – | COc1ccc(CN(Cc2ccccc2)C(=O)c2ccc(OC)cc2O)cc1 [Structure 124]
45 | – | 14.1 | 38 | – | COc1ccc(C2Nc3ccccc3C(=O)N2Cc2ccccc2)cc1COc1cccc(C)c1 (stereo not drawn) [Structure 127]
46 | 51.77 | 28.2 | – | – | O=C(c1ccccc1O)N(Cc1ccccc1)Cc1ccccc1 [Structure 129]
47 | 53.70 | 50.1 | – | – | COc1ccc(CN(Cc2ccccc2)C(=O)COC(C)=O)cc1COc1ccc(NC(C)=O)cc1 [Structure 130]
48 | 99.01 | 35.5 | – | – | COc1ccc(C(=O)N(Cc2ccccc2)Cc2ccccc2)c(O)c1 [Structure 131]
49 | 37.00 | 28.2 | – | – | COc1ccc(CN(Cc2ccccc2)C(=O)c2ccc(OC)cc2O)cc1 [Structure 136]
50 | – | – | – | inactive | COc1ccc(C2Nc3ccccc3C(=O)N2Cc2ccccc2C)cc1COc1ccc(NC(C)=O)cc1 (stereo not drawn) [Structure 139]

Row | Maximum Activity compared to TSH | AC50 (read-out: AC50) [µM] | Emax [%] | AC50 | Structure (SMILES)
51 | – | – | – | inactive | COc1ccc(C2Nc3ccccc3C(=O)N2Cc2ccccc2)cc1COc1ccc(Cl)cc1 (stereo not drawn) [Structure 140]
52 | – | – | – | inactive | CC(C)c1ccc(C2C3=C(CC(c4ccco4)CC3=O)Nc3nc(C(F)(F)F)nn32)cc1 (stereo not drawn) [Structure 143]
53 | – | – | – | inactive | COc1ccc(C2Nc3ccccc3C(=O)N2CCCN(C)C)cc1COc1ccc(NC(C)=O)cc1 (stereo not drawn) [Structure 146]
54 | – | – | – | inactive | O=C1CC(c2ccco2)CC2=C1C(c1cccnc1)n1nc(C(F)(F)F)nc1N2 (stereo not drawn) [Structure 147]
55 | – | – | – | inactive | CC(=O)Nc1cccc(OCc2cccc(C3Nc4ccccc4C(=O)N3Cc3ccco3)c2)c1 (stereo not drawn) [Structure 149]
56 | – | – | – | inactive | COc1ccc(C2Nc3ccccc3CN2Cc2ccco2)cc1COc1cccc(NC(C)=O)c1 (stereo not drawn) [Structure 150]
57 | – | – | – | inactive | COc1ccc(C2Nc3ccccc3C(=O)N2Cc2ccccc2)cc1COc1ccc(F)cc1 (stereo not drawn) [Structure 152]
58 | – | – | – | inactive | O=C(c1ccccc1O)N(Cc1ccco1)Cc1cccs1 [Structure 154]
59 | 25.50 | 12.6 | – | – | COc1ccc(-c2nc3ccc(NC(C)=O)cc3c(=O)n2Cc2cccc(Cl)c2)cc1COc1ccc(NC(C)=O)cc1 [Structure 155]
60 | – | – | – | inactive | COc1ccc(C2Nc3ccccc3C(=O)N2Cc2ccco2)cc1 (stereo not drawn) [Structure 156]
61 | – | – | – | inactive | O=C1c2ccccc2NC(c2ccccc2O)N1Cc1ccccc1 (stereo not drawn) [Structure 157]
62 | – | – | – | inactive | CC(=O)Nc1ccc(OCc2cccc(-c3nc4ccccc4c(=O)n3Cc3ccco3)c2)cc1 [Structure 159]
63 | – | – | – | inactive | COc1ccc(CN(Cc2ccccc2)C(C)=O)cc1COc1ccc(NC(C)=O)cc1 [Structure 161]
64 | – | – | – | inactive | CC(=O)Nc1ccc(OCc2cccc(C3Nc4ccccc4C(=O)N3Cc3ccco3)c2)cc1 (stereo not drawn) [Structure 165]
65 | – | – | – | inactive | COc1ccc(C2Nc3ccccc3C(=O)N2Cc2ccccc2)cc1COc1ccc(C#N)cc1 (stereo not drawn) [Structure 170]
66 | – | – | – | inactive | O=C1CC(c2ccco2)CC2=C1C(c1cccnc1)n1nc(C(F)(F)F)nc1N2 (stereo not drawn) [Structure 171]
67 | – | – | – | inactive | O=C1CC(c2ccco2)CC2=C1C(c1ccc(O)cc1)n1nc(C(F)(F)F)nc1N2 (stereo not drawn) [Structure 174]
